Reference: patent US9828348B2, “Benzimidazole derivatives and use thereof” (priority 2013, dated 2017)

target: human Nav1.7 (Homo sapiens (Human), UniProt Q15858); assay: FLIPR or FLIPR TETRA sodium dye assay with KCl and test article pre-incubation; type: cell-based; conditions: read-out: Nav1.7 Activity (μM) FLIPR assay IC50 (μM) ± SEM
Sequence (Q15858 with tags, fused parts or gaps limits assumed): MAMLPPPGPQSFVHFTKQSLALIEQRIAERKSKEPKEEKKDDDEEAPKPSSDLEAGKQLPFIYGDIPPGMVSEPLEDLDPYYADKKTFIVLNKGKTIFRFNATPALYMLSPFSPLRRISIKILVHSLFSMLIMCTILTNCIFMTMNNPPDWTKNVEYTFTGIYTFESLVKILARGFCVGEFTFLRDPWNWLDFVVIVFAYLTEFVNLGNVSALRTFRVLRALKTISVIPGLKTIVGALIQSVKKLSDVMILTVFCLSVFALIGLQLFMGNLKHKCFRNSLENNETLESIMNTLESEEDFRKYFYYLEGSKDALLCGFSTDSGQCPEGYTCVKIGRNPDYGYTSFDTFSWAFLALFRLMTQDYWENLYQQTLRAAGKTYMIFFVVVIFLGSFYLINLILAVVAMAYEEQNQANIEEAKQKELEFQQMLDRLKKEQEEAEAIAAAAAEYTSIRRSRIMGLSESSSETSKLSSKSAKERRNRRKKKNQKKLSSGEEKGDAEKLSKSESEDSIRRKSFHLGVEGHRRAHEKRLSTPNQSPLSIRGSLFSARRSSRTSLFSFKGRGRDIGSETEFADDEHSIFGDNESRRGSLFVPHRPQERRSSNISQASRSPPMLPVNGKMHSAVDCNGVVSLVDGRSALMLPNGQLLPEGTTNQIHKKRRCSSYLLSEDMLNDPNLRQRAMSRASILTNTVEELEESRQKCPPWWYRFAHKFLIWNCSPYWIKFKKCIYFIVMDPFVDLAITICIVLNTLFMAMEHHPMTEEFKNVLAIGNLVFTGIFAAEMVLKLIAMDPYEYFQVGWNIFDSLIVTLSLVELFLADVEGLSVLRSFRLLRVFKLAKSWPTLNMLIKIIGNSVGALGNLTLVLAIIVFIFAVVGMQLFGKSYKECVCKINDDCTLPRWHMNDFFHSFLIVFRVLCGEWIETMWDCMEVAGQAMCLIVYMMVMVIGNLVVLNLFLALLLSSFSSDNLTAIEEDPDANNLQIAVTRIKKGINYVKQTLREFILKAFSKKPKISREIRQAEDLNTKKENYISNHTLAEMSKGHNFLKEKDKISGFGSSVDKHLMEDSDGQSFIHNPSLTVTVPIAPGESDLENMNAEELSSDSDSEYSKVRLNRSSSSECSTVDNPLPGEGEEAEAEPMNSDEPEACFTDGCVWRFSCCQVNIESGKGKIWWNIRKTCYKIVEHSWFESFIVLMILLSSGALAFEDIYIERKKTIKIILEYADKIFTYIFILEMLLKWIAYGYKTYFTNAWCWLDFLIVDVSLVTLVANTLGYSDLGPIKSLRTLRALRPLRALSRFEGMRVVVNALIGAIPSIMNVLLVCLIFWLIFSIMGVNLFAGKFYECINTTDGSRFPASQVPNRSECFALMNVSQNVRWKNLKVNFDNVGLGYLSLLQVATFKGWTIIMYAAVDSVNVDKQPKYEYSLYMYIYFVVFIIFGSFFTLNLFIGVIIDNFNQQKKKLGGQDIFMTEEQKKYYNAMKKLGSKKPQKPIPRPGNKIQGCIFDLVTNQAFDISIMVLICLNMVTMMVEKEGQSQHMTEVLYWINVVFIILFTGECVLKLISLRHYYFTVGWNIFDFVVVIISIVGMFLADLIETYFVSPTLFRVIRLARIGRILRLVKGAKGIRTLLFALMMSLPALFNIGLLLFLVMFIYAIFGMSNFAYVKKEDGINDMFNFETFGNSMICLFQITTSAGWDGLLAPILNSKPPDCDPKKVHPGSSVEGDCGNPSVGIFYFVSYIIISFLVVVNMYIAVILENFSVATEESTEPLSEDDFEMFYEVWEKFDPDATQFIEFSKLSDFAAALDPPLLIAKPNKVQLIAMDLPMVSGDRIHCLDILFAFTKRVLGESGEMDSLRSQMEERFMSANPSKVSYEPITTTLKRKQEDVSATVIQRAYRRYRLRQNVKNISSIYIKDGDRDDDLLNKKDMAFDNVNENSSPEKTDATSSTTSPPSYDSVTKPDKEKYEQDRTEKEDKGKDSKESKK

How did the IC50 turn out when Cc1nnc(Cc2nc3ccccc3n2-c2ccc(Oc3ccc(F)cc3)cc2)[nH]1 [Compound 16, 1-(4-(4-fluorophenoxy)phenyl)-2-((5-methyl-4H-1,2,4-triazol-3-yl)methyl)-1H-benzo[d]imidazole] was run?
Its IC50 is 0.957 ± 0.092 µM.

For Fc1ccc(Oc2ccc(-n3c(-c4c[nH]cn4)nc4ccccc43)cc2)cc1 [Compound 11, 1-(4-(4-fluorophenoxy)phenyl)-2-(1H-imidazol-4-yl)-1H-benzo[d]imidazole], which IC50 is on record?
Its IC50 is 0.102 ± 0.022 µM.

same assay, conditions: recombinant human Nav1.7 in HEK293 cells; CoroNa Green sodium dye, KCl pre-incubation; veratridine and scorpion venom agonists; read-out: Nav1.7 Activity (μM) FLIPR assay IC50 (μM) ± SEM

For CCN(CC)C(=O)CN1CCC(c2nc3ccccc3n2-c2ccc(Oc3ccc(F)cc3)cc2)CC1 [Compound 24, N,N-diethyl-2-(4-(1-(4-(4-fluorophenoxy)phenyl)-1H-benzo[d]imidazol-2-yl)piperidin-1-yl)acetamide], which IC50 is on record?
The IC50 was 0.516 ± 0.029 µM.

With NC(=O)CN1CCC[C@H]1c1nc2ccccc2n1-c1ccc(Oc2ccc(F)cc2)cc1 [Compound 25, (S)-2-(2-(1-(4-(4-fluorophenoxy)phenyl)-1H-benzo[d]imidazol-2-yl)pyrrolidin-1-yl)acetamide] as the molecule, how does the IC50 read?
The IC50 was 1.22 ± 0.035 µM.

Fc1ccc(Oc2ccc(-n3c(Cc4nnn[nH]4)nc4ccccc43)cc2)cc1 [Compound 15, 2-((1H-tetrazol-5-yl)methyl)-1-(4-(4-fluorophenoxy)phenyl)-1H-benzo[d]imidazole] was tested. Which IC50 did it give?
The IC50 was greater than 20 µM.

How did the IC50 turn out when Fc1ccc(Oc2ccc(-n3c(C4CCOCC4)nc4ccccc43)cc2)cc1 [Compound 9, 1-(4-(4-fluorophenoxy)phenyl)-2-(tetrahydro-2H-pyran-4-yl)-1H-benzo[d]imidazole] was run?
The IC50 was 0.63 ± 0.05 µM.

With Cn1cc(Cl)c(-c2nc3ccccc3n2-c2ccc(Oc3ccc(F)cc3)cc2)n1 [Compound 10, 2-(4-chloro-1-methyl-1H-pyrazol-3-yl)-1-(4-(4-fluorophenoxy)phenyl)-1H-benzo[d]imidazole] as the molecule, how does the IC50 read?
Its IC50 is 0.313 ± 0.032 µM.

For O=C1CC[C@@H](c2nc3ccccc3n2-c2ccc(Oc3ccc(F)cc3)cc2)N1 [Compound 14, (S)-5-(1-(4-(4-fluorophenoxy)-phenyl)-1H-benzo[d]imidazol-2-yl)pyrrolidin-2-one], which IC50 is on record?
Its IC50 is 0.571 ± 0.07 µM.

For Fc1ccc(Oc2ccc(-n3c(CCN4CCCCC4)nc4ccccc43)cc2)cc1 [Compound 17, 1-(4-(4-fluorophenoxy)phenyl)-2-(2-(piperidin-1-yl)ethyl)-1H-benzo[d]imidazole], which IC50 is on record?
Its IC50 is 0.081 ± 0.009 µM.

For NC(=O)CN1CCC(c2nc3ccccc3n2-c2ccc(Oc3ccc(F)cc3)cc2)CC1 [Compound 23, 2-(4-(1-(4-(4-fluorophenoxy)phenyl)-1H-benzo[d]imidazol-2-yl)piperidin-1-yl)acetamide], which IC50 is on record?
The IC50 was 1.49 ± 0.225 µM.
